Laboratory results reported in patent publication US20120283100A1, “CONTROLLING PLANTHOPPERS” (priority 2011, published 2012).
Where “and” joins values, the source holds several entries; their conditions need not be identical. Identical values can stand only once.

System: brown planthoppers, Nilaparvata lugens
Assay: Field efficacy on brown planthopper in transplanted rice (small-plot trials A-D)
Format: in vivo
Conditions: Sulfoxaflor 50 g/ha, Chlorpyrifos 500 g/ha, mixture 50 + 500 g/ha; for % Control: Trial A
Procedure: Applications were made to transplanted rice, Oryza sativa, using standard small-plot efficacy methods. Chemicals were diluted in water and all treatments were applied using a backpack sprayer calibrated to deliver 500 liters of spray per hectare. Experimental plots measured 5 by 10 meters and each treatment was replicated three times in each trial. At the specified intervals after treatment, brown planthoppers, Nilaparvata lugens, were counted in 10 randomly selected hills per plot. Data were transformed to percent control relative to the untreated plots, then subjected to analysis of variance, and means were separated using Tukey's HSD (p=0.1). Expected control was calculated using the method of Colby and compared to observed control. See the Table Section for the results of the Field Trials.

Row | Compound | % Control (1 DAT, relative to untreated plots) | % Control (3 DAT) | % Control (7 DAT) | % Control (10 DAT) | % Control (15 DAT) | % Control at DAT (Trial B, 1 DAT) | % Control at DAT (Trial B, 3 DAT) | % Control at DAT (Trial B, 7 DAT) | % Control at DAT (Trial B, 10 DAT) | % Control at DAT (Trial B, 15 DAT) | % Control at DAT (Trial C, 1 DAT) | % Control at DAT (Trial C, 3 DAT) | % Control at DAT (Trial C, 7 DAT) | % Control at DAT (Trial C, 10 DAT) | % Control at DAT (Trial C, 15 DAT) | % Control at DAT (Trial D, 1 DAT) | % Control at DAT (Trial D, 7 DAT) | % Control at DAT (Trial D, 10 DAT) | % Control at DAT (Trial D, 15 DAT)
1 | CCOP(=S)(OCC)Oc1nc(Cl)c(Cl)cc1Cl [Chlorpyrifos] | 13.7 bc % and 13.7% | 37.5 b % and 37.5% | 32.4 b % and 32.4% | 7.8 b % and 7.8% | 21.0 b % and 21% | 45.2 ab % and 45.2% | 64.8 b % and 64.8% | 54.0 b % and 54% | 39.8 b % and 39.8% | 57.8 b % and 57.8% | 53.4 ab % and 53.4% | 67.0 b % and 67% | 59.7 b % and 59.7% | 10.5 b % and 10.5% | 37.9 b % and 37.9% | 59.6 c % and 59.6% | 53.8 c % and 53.8% | 18.2 c % and 18.2% | 27.0 c % and 27%
2 | CC(c1ccc(C(F)(F)F)nc1)S(C)(=O)=NC#N (stereo not drawn) [Sulfoxaflor] |  |  |  | 6.8% |  |  |  |  | 48.2% |  |  |  |  |  |  |  |  |  | 
